Laboratory results taken from patent publication US20230333019A1, “TWO-PHOTON FLUORESCENT PROBES FOR SIMULTANEOUSLY DETECTING CALCIUM IONS IN ORGANELLES AND LYSOSOMAL PROTONS” (Korea University Research and Business Foundation, priority 2022, published 2023).
Like-named read-outs stand apart in the source and are kept apart here. Marks after values point to notes of the source that are not given here.

Legend:
[1] = Fluorescence titration with Ca2+ in calcium calibration buffer (apparent dissociation constant, FEF); format: binding; details: for FEF, fluorescence enhancement factor (Fmax-Fmin)/Fmin: one-photon, complexation with Ca2+ in CB
Procedure: (§1) A dissociation constant (Kd) for binding the probe to Ca^2+ was measured using a conventionally known method. Calcium calibration buffers (CBs; 10 mM 3-[N-morpholino]propanesulfonic acid [MOPS], 100 mM KCl, pH 7.2) containing Ca^2+ at concentrations of 0 to 40 μM were prepared using a calcium calibration buffer kit (Biotium, CA, USA). A buffer containing […] or more of Ca^2+ was prepared by adding an appropriate amount of CaCl2 to a MOPS buffer. Probes (BCa-3°mem at a concentration of 0.3 μM and BCa-1 and BCa-2mito at concentrations of 0.1 μM) were added to calcium CB and fluorescence intensity was measured. Each Kd was calculated through a resultant titration curve. In addition, in order to evaluate a fluorescence titration of FHEt-1lyso, the fluorescence intensity was measured by adding FHEt-1lyso probe at a concentration of 0.6 μM in a universal buffer (UB; 0.1 M citric acid, 0.1 M KH2PO4, 0.1 M Na2B4O7, 0.1 M tris[hydroxymethyl]aminomethane, 0.1 M KCl) at pH 4 to 11. The pKa value was calculated through a titration curve.

HeLa cells [2] = test: Dual-color TPM of cytoplasmic Ca2+ and lysosomal pH, monensin; format: cell-based; details: monensin 20 μM
Procedure: To simultaneously monitor changes in lysosomal pH and cytoplasmic [Ca^2+], HeLa cells were co-labeled with a mixture of BCa-1-AM (3 μM) and FHEt-1lyso (1 μM). The cells were washed twice with RB, once with RB containing 5 mM EGTA, and twice with RB containing 0.1 mM EGTA. The TPEF intensity of the cells was measured before and after adding monensin (20 μM, Sigma-Aldrich) to EtOH.
Whether BCa-1 and FHEt-1lyso could be used to simultaneously monitor changes in cytoplasmic [Ca^2+ ] and lysosomal pH during dual-color TPM was evaluated. […] Accordingly, it was confirmed that BCa-1 and FHEt-1lyso could be used to simultaneously monitor changes in cytoplasmic [Ca^2+] and lysosomal pH in live cells during dual-color TPM.

HeLa cells [3] = test: TPM detection of cytoplasmic Ca2+, histamine-induced oscillation; format: cell-based
Procedure: The mixture was cultured (incubated) at 37° C.
Before and after adding histamine dihydrochloride (100 μM, Sigma-Aldrich) to HBSS, Ca^2+ oscillation was evaluated by TPEF intensity monitoring in HeLa cells labeled with BCa-1-AM (2 μM).
Whether BCa-1 may detect Ca^2+ in the cytoplasm was evaluated. […] The increase and decrease of the TPEF intensity were repeated for 800 seconds, which was consistent with the results of previous histamine-induced Ca oscillation studies. Accordingly, it was confirmed that BCa-1 may target the cytoplasm and detect Ca^2+ in the cytoplasm (FIG. 16).

HeLa cells [4] = system: HeLa cells
Procedure: HeLa cells were purchased from the Korean Cell Line Bank (Seoul, Korea). […] Before two days of imaging, HeLa cells (5×10^4/mL) were plated on a confocal glass bottom dish (#200350, SPL Life Sciences, Gyonggi-do, Korea). The cells were washed with an aqueous buffer (pH 7.4), a Hank's balanced salt solution (HBSS; LB003-02, WelGene Inc., Gyeongsangbuk-do, Korea), or a Ringer's solution (RB; 124 mM NaCl, 26 mM NaHCO3, 10 mM d-glucose, 1.3 mM MgSO4, 3 mM KCl, 1.25 mM NaH2PO4) unless otherwise specified. Thereafter, the probe (0.5 to 3 μM) and Pluronic® F-127 (0.03%, Sigma-Aldrich, St. Louis, MO, USA) were added to the cells in one of the three aqueous buffers (1.0 mL). The mixture was cultured (incubated) at 37° C. (BCa-1-AM and BCa-2mito-AM) for 40 minutes or at room temperature (RT; BCa-3mem) for 10 minutes. The cells labeled with the probe were washed 3 times with each corresponding buffer before imaging.

[5] = Fluorescence quantum yield; format: physicochemical
Procedure: Absorption and emission spectra of a two-photon probe (TP probe) were measured using an Agilent 8453 diode array UV-Vis spectrophotometer and a Hitachi fluorescence spectrophotometer F-7000 system using a previously reported method (Chem. Asian J. 2015, 10(10):2240-2249). Fluorescence quantum yield (Φ) was measured by a method used in another study (Anal. Chem. 2011, 83(4):1232-1242) using Coumarin 540A. Two-photon (TP) excitation was implemented using a mode-locked Ti:sapphire laser (Chameleon, 90 MHz, 200 fs; Coherent Inc.).
All of the two-photon probe compounds emitted weak fluorescence at a maximum emission value (4) of 464 to 466 nm and fluorescence quantum yields (0) of 0.027 to 0.063 in CB (10 mM MOPS, 100 mM KCl, pH 7.2). […] The low fluorescence quantum yield (0) values observed with these probes may contribute to efficient photo-induced electron transfer (PeT) from the receptor to the fluorophore (Table 1).

HeLa cells [6] = test: Effective TP action cross-section (Φδeff) in probe-labeled cells; format: cell-based; details: 750 nm
Procedure: (§2) Φδ and Φδeff for the probes were evaluated using the fluorescence method as reported in other studies (Chem. Asian J. 2015, 10(10):2240-2249).

[7] = Two-photon action cross-section (Φδ); format: physicochemical; details: for Φδmax, maximum TP action cross-section: 750 nm, excess Ca2+ (BCa probes) or pH 4.3 (FHEt-1lyso), error ±15%; for Φδ values: absence of Ca2+ (BCa-3°mem) / pH 11 (FHEt-1lyso)
Procedure: as §2
To evaluate the brightness of the TPM image, a TP action cross-section (Φδ) was measured by a conventionally known method.

[8] = Metal ion selectivity, relative fluorescence intensity in MOPS buffer; details: for Response to Zn2+ and Mn2+: 100 μM; for Response to Zn2+ and Mn2+ / Response to Mg2+, Fe2+, Cu2+, Co2+: MOPS pH 7.2; for Response to Mg2+, Fe2+, Cu2+, Co2+: Mg2+ 2 mM, Co2+ 100 μM; for Selectivity for Ca2+: versus competing metal ions
Procedure: FIG. 8 is graphs showing relative fluorescence intensities of (a) BCa-1, (b) BCa-2mito, or (c) BCa−3°mem in the presence of 2 mM Mg^2+ or 100 μM Zn^2+, Mn^2+, Fe^2+, Cu^2+, or Co^2+ (black bars) and according to subsequent addition of 100 μM Ca^2+ (red bars) in a MOPS buffer (30 mM 3[N-morpholino]propanesulfonic acid, 100 mM KCl, pH 7.2). At this time, excitation wavelengths are (a) 363 nm, (b) 355 nm, and (c) 350 nm, respectively.

[9] = Water solubility in aqueous buffer; format: physicochemical
Procedure: The water solubility of BCa-1, BCa-2mito, BCa−3°mem, and FHEt-1lyso in an aqueous buffer (pH 7.4) was evaluated using a conventional fluorescence technique (Chem. Asian J. 2015, 10(10):2240-2249).

HeLa cells [10] = test: TPM detection of Ca2+ in plasma membrane; format: cell-based
Procedure: HeLa cells were purchased from the Korean Cell Line Bank (Seoul, Korea). The cells were cultured by a method described in previous studies (Chem. Asian J. 2015, 10(10):2240-2249). Before two days of imaging, HeLa cells (5×10^4/mL) were plated on a confocal glass bottom dish (#200350, SPL Life Sciences, Gyonggi-do, Korea). The cells were washed with an aqueous buffer (pH 7.4), a Hank's balanced salt solution (HBSS; LB003-02, WelGene Inc., Gyeongsangbuk-do, Korea), or a Ringer's solution (RB; 124 mM NaCl, 26 mM NaHCO3, 10 mM d-glucose, 1.3 mM MgSO4, 3 mM KCl, 1.25 mM NaH2PO4) unless otherwise specified. Thereafter, the probe (0.5 to 3 μM) and Pluronic® F-127 (0.03%, Sigma-Aldrich, St. Louis, MO, USA) were added to the cells in one of the three aqueous buffers (1.0 mL). The mixture was cultured (incubated) at 37° C. (BCa-1-AM and BCa-2mito-AM) for 40 minutes or at room temperature (RT; BCa-3mem) for 10 minutes. The cells labeled with the probe were washed 3 times with each corresponding buffer before imaging.
(§3) TP microscopy (TPM) images were obtained using spectral confocal and multiphoton microscopy (Leica TCS SP2; Leica). TPM images of probe-labeled HeLa cells were obtained using a Leica TCS SP2 using a conventional method (Chem. Asian J. 2015, 10(10):2240-2249). Time-dependent changes in TPEF intensity were monitored and measured at intervals of 1.6 to 2.0 seconds in the xyt mode upon excitation at 750 nm. To monitor changes in [Ca^2+ ] in the plasma membrane, the cells were washed successively with RB containing 5, 0.1, and 0 mM of EGTA and then incubated with BCa-3mem (2 μM). The TPEF intensity was measured before and after adding CaCl2 (2 mM) to RB and EGTA (2 mM) in distilled water.
First, whether BCa-3mem may detect Ca^2+ in the plasma membrane was evaluated.

[11] = Fluorescence titration of FHEt-1lyso against pH in universal buffer (pKa); format: physicochemical; details: for pKa: universal buffer (UB)
Procedure: as §1
Meanwhile, the fluorescence titration of FHEt-1lyso was performed in UB at pH 4 to 11. […] Therefore, it was confirmed that FHEt-1lyso may detect pH in live cells.

HeLa cells [12] = test: TPM lysosome colocalization with BLT-blue; format: cell-based
From the text: as §3
Whether FHEt-1lyso may detect H^+ in the lysosome was evaluated. […] Therefore, it was confirmed that FHEt-1lyso had the ability to detect H^+ in the lysosome by targeting the lysosome.

[13] = from fluorescence titration curve, CB, read-out: Dissociation constant Kd
[14] = in the absence of excess Ca2+, CB pH 7.2
[15] = in the presence of excess Ca2+ (in parentheses)

| Structure (SMILES) | Kd [1, 13] | Fluorescence quantum yield Φ [5, 14] | Fluorescence quantum yield Φ [5, 15] | Φδeff, effective TP action cross-section (HeLa cells [6]) | FEF, fluorescence enhancement factor (Fmax-Fmin)/Fmin [1] | Φδmax, maximum TP action cross-section [7] | Response to Zn2+ and Mn2+ [8] | Response to Mg2+, Fe2+, Cu2+, Co2+ [8] | Selectivity for Ca2+ [8] | Φδ values [7] | other results |
| --- | --- | --- | --- | --- | --- | --- | --- | --- | --- | --- | --- |
| COCCOCCOc1ccc2oc(-c3ccc4cc(NCC(=O)Nc5ccc(N(CC(=O)OCOC(C)=O)CC(=O)OCOC(C)=O)c(OCCOc6ccccc6N(CC(=O)OCOC(C)=O)CC(=O)OCOC(C)=O)c5)ccc4c3)nc2c1 [BCa-1-AM] | 180 nM |  |  |  |  |  |  |  |  |  | TPEF intensity in the cytoplasm on monensin addition (HeLa cells [2]; 380 to 480 nm): simultaneously increased; Duration of repeated increase and decrease of TPEF intensity (HeLa cells [3]; after histamine): 800 s; TPEF intensity on adding histamine (HeLa cells [3]; histamine 100 μM, cytoplasm): increased and then decreased |
| CC(=O)OCOC(=O)CN(CC(=O)OCOC(C)=O)c1ccc(NC(=O)CNc2ccc3cc(-c4nc5cc(OCCC[P+](c6ccccc6)(c6ccccc6)c6ccccc6)ccc5o4)ccc3c2)cc1OCCOc1c(F)cccc1N(CC(=O)OCOC(C)=O)CC(=O)OCOC(C)=O.[Br-] [BCa-2mito-AM] | 2700 nM |  |  |  |  |  |  |  |  |  | Pearson's colocalization coefficient (A) (HeLa cells [4]; with MitoTracker Red): 0.84 |
| O=C([O-])CN(CC(=O)[O-])c1ccc(NC(=O)CNc2ccc3cc(-c4nc5cc(OCCC[P+](c6ccccc6)(c6ccccc6)c6ccccc6)ccc5o4)ccc3c2)cc1OCCOc1c(F)cccc1N(CC(=O)[O-])CC(=O)[O-].[Br-].[K+].[K+].[K+].[K+] [BCa-2mito] | 2700 nM | 0.049^d | (0.50) | 2000 GM | 10 | 70 10^−50 cm^4s/photon (GM) | moderate | weak | high |  | TPEF intensity in the cytoplasm on FCCP treatment (HeLa cells [4]; FCCP): increased temporarily in the cytoplasm and then gradually decreased to a baseline; TPEF intensity in the mitochondria on FCCP treatment (HeLa cells [4]; FCCP): rapidly decreased |
| CCCCCCOc1ccc2oc(-c3ccc4cc(NCC(=O)Nc5ccc(N(CC(=O)[O-])CC(=O)[O-])c(OCC(=O)N6CCOCC6)c5)ccc4c3)nc2c1.[K+].[K+] [BCa-3mem] |  |  |  | 4800 GM |  |  |  |  |  |  | Aqueous solubility [9]: too low; TPEF intensity upon addition of Ca2+ (HeLa cells [10]; Ca2+ 2 mM): increased; TPEF intensity during treatment with EGTA (HeLa cells [10]; EGTA 2 mM): decreased; Persistence of plasma membrane signals (HeLa cells [10]; labeled HeLa cells): at least 1 hour |
| O=C([O-])CN(CC(=O)[O-])c1ccc(NC(=O)CNc2ccc3cc(-c4nc5ccccc5o4)ccc3c2)cc1OCC(=O)N1CCOCC1.[K+].[K+] [BCa-3°mem] |  | 0.027^d | (0.72) | 4800 GM | 26 | 60 10^−50 cm^4s/photon (GM) | moderate | weak | high | quite low | FEF, fluorescence enhancement factor (in parentheses) ([1]; TP process, complexation with Ca2+): (25); Kd ([1]; TP process, read-out: Kd^TP): 95000 nM; TPM images in contrast to BCa-3mem (HeLa cells [10]; HeLa cells, 0.5 μM probe): much darker and blurry |
| CCN(CC)c1ccc(NC(=O)CNc2ccc3c(c2)C(C)(CC(=O)NCCN(C)C)c2cc(C(C)=O)ccc2-3)cc1 (centres unmarked) [FHEt-1lyso] |  |  |  | 21000 GM |  | 70 10^−50 cm^4s/photon (GM) |  |  |  | quite low | Fluorescence quantum yield Φ ([5]; at pH 4.3 (in parentheses)): (0.33); FEF, fluorescence enhancement factor (in parentheses) ([11]; TP process, protonation, UB): (24); FEF, fluorescence enhancement factor ([11]; one-photon, protonation, UB): 25; pKa ([11]; TP process, UB, read-out: pKa^TP (in parentheses)): 6.6; pKa ([11]; one-photon fluorescence titration, UB pH 4 to 11, read-out: pKa): 6.5; TPEF intensity in the lysosome on monensin addition (HeLa cells [2]; 550 to 660 nm): rapidly decreased; Pearson's colocalization coefficient (A) (HeLa cells [12]): 0.86 |
